# Source: PMC2654718 (Biochemistry, 2009)
# Columns and labels:
# [1] = system: serum vitamin D binding protein; conditions: cited from earlier work
# [2] = mice; cited from earlier work
# MBP-VDR-LBDmt = biological target: T1, MBP-VDR-LBDmt (Homo sapiens, UniProt P11473, DEL165-215); experiment: Fluorescence polarization peptide binding assay; conditions: FP
# T1 sequence (P11473 with tags, fused parts or gaps DEL165-215 limits assumed): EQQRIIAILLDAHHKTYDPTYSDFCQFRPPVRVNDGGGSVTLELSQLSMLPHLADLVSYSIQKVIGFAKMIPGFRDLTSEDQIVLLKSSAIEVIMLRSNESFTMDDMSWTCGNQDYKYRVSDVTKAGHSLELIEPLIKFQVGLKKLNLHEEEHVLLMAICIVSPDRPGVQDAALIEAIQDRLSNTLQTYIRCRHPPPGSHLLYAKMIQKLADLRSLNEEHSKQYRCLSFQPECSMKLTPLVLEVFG
# VDR-LBD = biological target: T2, VDR-LBD (Homo sapiens, UniProt P11473, DEL165-215); experiment: Isothermal titration calorimetry of SRC2-3 peptides with VDR-LBD; conditions: 25 °C, 20 mM HEPES pH 7.5, 150 mM NaCl; for n: ITC stoichiometry; for ΔH: ITC
# T2 sequence (P11473 with tags, fused parts or gaps DEL165-215 limits assumed): T1 sequence (P11473 with tags, fused parts or gaps DEL165-215 limits assumed)
Binding affinity towards VDR (in words) (MBP-VDR-LBDmt; in the presence of ligand),"Binding in the absence of ligand (in words) (MBP-VDR-LBDmt; no ligand, no plateau at higher protein concentrations)",SMILES,Binding to serum vitamin D binding protein (in words) [1],Influence on calcium serum levels (in words) [2],n (VDR-LBD),ΔH (VDR-LBD) [kJ/mol]
,,CCC(CC)(c1ccc(OCC(O)CO)c(C)c1)c1ccc(OCC(O)C(C)(C)C)c(C)c1 (centres unmarked) [LG190178],does not bind,no influence,,
High affinity binding,weak or no binding,CC(C)C[C@H](NC(=O)[C@H](C)NC(=O)[C@H](CC(N)=O)NC(=O)[C@H](CCC(=O)O)NC(=O)[C@H](CCCCN)NC(=O)[C@H](CCCCN)NC(=O)[C@H](CCCCN)NC(=O)[C@@H](N)CS)C(=O)N[C@@H](CC(C)C)C(=O)N[C@@H](CCCNC(=N)N)C(=O)N[C@@H](Cc1ccc(O)cc1)C(=O)N[C@@H](CC(C)C)C(=O)N[C@@H](CC(C)C)C(=O)N[C@@H](CC(=O)O)C(=O)N[C@@H](CCCCN)C(=O)N[C@@H](CC(=O)O)C(=O)N[C@@H](CC(=O)O)C(=O)N[C@H](C(=O)N[C@@H](CCCCN)C(=O)N[C@@H](CC(=O)O)C(=O)O)[C@@H](C)O [SRC2-3],,,1.02±0.02,-28 ± 1.3
,,CC(C)C[C@H](NC(=O)[C@H](C)NC(=O)[C@H](CC(N)=O)NC(=O)[C@H](CCC(=O)O)NC(=O)[C@H](CCCCN)NC(=O)[C@H](CCCCN)NC(=O)[C@H](CCCCN)NC(=O)[C@@H](N)CSC1CC(=O)N(CCNS(=O)(=O)c2ccc(C3=c4cc5c6c(c4Oc4c3cc3c7c4CCCN7CCC3)CCC[N+]=6CCC5)c(S(=O)(=O)[O-])c2)C1=O)C(=O)N[C@@H](CC(C)C)C(=O)N[C@@H](CCCNC(=N)N)C(=O)N[C@@H](Cc1ccc(O)cc1)C(=O)N[C@@H](CC(C)C)C(=O)N[C@@H](CC(C)C)C(=O)N[C@@H](CC(=O)O)C(=O)N[C@@H](CCCCN)C(=O)N[C@@H](CC(=O)O)C(=O)N[C@@H](CC(=O)O)C(=O)N[C@H](C(=O)N[C@@H](CCCCN)C(=O)N[C@@H](CC(=O)O)C(=O)O)[C@@H](C)O (some centres unmarked) [SRC2-3_Texas-Red],,,0.93±0.04,-9.2 ± 0.502
